Entries after “also recorded” stand apart in the source; their conditions may differ. Values belong to the compound of their own block, whether it stands above or below them.
Tests used:
5-HT1A receptor = biological target: T1, 5-HT1A receptor (Homo sapiens, UniProt P08908); details: description of the compound; cited from earlier work
T1 sequence (P08908 1-422): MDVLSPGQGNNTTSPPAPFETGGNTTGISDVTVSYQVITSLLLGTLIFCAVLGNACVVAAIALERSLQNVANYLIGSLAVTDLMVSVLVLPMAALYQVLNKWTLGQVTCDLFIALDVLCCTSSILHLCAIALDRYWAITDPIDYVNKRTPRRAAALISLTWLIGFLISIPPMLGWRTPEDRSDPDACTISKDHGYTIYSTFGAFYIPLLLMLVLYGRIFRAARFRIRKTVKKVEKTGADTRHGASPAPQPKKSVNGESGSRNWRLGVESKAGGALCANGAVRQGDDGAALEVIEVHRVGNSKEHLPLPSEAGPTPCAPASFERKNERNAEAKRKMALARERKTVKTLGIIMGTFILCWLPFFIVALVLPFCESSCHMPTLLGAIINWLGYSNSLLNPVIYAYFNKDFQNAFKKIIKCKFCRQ

rod photoreceptors = experiment: Scotopic flash ERG (a- and b-wave) after blue light-induced injury, model of dry AMD; format: in vivo, rat; details: for protection of retinal signaling: doses greater of 1 mg/kg, blue-light induced damage model in rodent; for protection of rod photoreceptors from blue light-induced injury: model of dry AMD
Excerpt: Seven days after exposure to 10,000 lux blue light, the amplitude of a- and b-wave components of the electroretinogram (ERG) is reduced to 20-30% of its pre-exposure amplitude (FIG. 4A). The ERG signals from median respondents in each group are shown in the inset in A. The tracing designated “α” illustrates the signal evoked in a naïve animal when stimulated with 20 candela-sec/m^2 white light. […] Full dose response showing the dose and corresponding retinal concentration of zalospirone is shown in the bar graph (FIG. 4A).
Seven days after exposure to 10,000 lux blue light, the amplitude of a- and b-wave components of the electroretinogram (ERG) is reduced to 20-30% of its pre-exposure amplitude (A). Full dose response showing the dose and corresponding retinal concentration of eptapirone is shown in the bar graph (A). The respective doses and corresponding retinal concentrations achieved following subcutaneous administration of eptapirone are shown on the abscissa. Data is plotted as the mean±SEM percentage of a- or b-wave measured prior to blue light-induced retinal degeneration. Protection of retinal architecture measured as the area of the outer nuclear layer (B) or the size of the lesion (C) in a section taken through the vertical meridian of the eye. H&E stained sections of from the median respondent, naïve and vehicle- or drug-treated animals illustrate the level protection achieved by treatment with 0.3 mg/kg eptapirone.
(§1) Bilateral flash ERG recordings on the dual dome Espion E^3 system (Diagnosys, LLC) were made prior to (baseline) and on the Day of zalospirone administration. Animals were anesthetized with a cocktail of 30 mg/mL Ketamine/0.2 mg/mL Dexmedetomidine (i.m.) to reach a final dose of 15 mg/kg Ketamine and 0.1 mg/kg Dexmedetomidine. Animals' eyes were given 1 drop each of 1% phenylephrine, 0.5% atropine and 1% proparacaine, sequentially. Noninvasive platinum wire loop electrodes moisturized with artificial tears (Goniovisc, Sigmapharmaceuticals, Inc.) were placed over the eyes, a reference electrode were placed in the bridge of the nose and a ground wire into the tail. Scotopic ERG measurements were made at 1e^−5 to 20 cd s/m^2. Photopic ERG measurements for S- and M-cone function were made at 8e^−4 to 40 cd s/m^2. The recording filter was set at 300 Hz.
(§2) Protection of rod photoreceptors by zalospirone from light induced injury is exemplified in FIG. 4 and by eptapirone in FIG. 5 below. Doses greater of 1 mg/kg provide 100% protection of structural integrity of the outer nuclear layer and 80% of retinal signaling in a blue-light induced damage model in rodent.

[1] = tested on: rod photoreceptors / outer nuclear layer; experiment: Histological analysis (H&E) of retinal architecture after blue light-induced injury; format: in vivo, rat; details: for retinal lesion (loss of photoreceptors) measured in the vertical meridian of the eye: blue light injury, maximal damage 1.5 mm superior to the optic nerve head; for protection of structural integrity of the outer nuclear layer: doses greater of 1 mg/kg, blue-light induced damage model in rodent; for outer nuclear cell count and retinal structure (H&E stained retinas): post-blue light, drug-treated vs naive and vehicle-treated retinae
Procedure: Protection of retinal architecture measured as the total count of photoreceptors (FIG. 4B) or the size of the lesion (FIG. 4C) in the section taken through the vertical meridian of the eye. (FIG. 4D) H&E stained sections of from the median respondent, naïve and vehicle- or drug-treated animals illustrate the level protection achieved by treatment with 1 mg/kg zalospirone.
On Day 7 post BL-exposure, animals were anesthetized with Euthasol and decapitated. Following decapitation, bilateral globes were enucleated and marked at the 12:00 position with black tissue ink. Both eyes from each animal were incubated in 5 mL of Davidson's fixative special overnight at RT. After ˜24 hours, both eyes were dehydrated in 50% ethanol (EtOH) for 1 hour at RT followed by storage in 70% EtOH at RT until paraffin processing. Eyes were then shipped to Premier Lab (Longmont, Colo.) for paraffin processing and embedding. Five micrometer thick paraffin sections were cut through the optic nerve head and mounted on glass.
For each eye, three H&E-stained slides were generated. Slides containing H&E-stained cross sections were imaged using the Nanozoomer whole slide scanner employing a 40× objective under bright field optics.
as §2

scotopic b-wave = experiment: Scotopic b-wave ERG with treatment after blue light-induced injury; format: in vivo, Sprague Dawley rat; details: single subcutaneous 3 mg/kg given after blue light injury (3.5 hour, 10,000 lux); stimulus 10^−5 candela-sec/m^2; N=8
Procedure: FIGS. 9A and 9B illustrate that treatment with zalospirone restores of the amplitude of the scotopic b-wave following light induced injury. FIG. 9A is a representative ERG recordings from a Sprague Dawley rat which was dark adapted overnight and exposed to white light stimulus (10^−5 candela-sec/m^2) are shown at baseline before injury, 7 days following exposure to a 3.5 hour exposure to 10,000 lux blue light and again at 3 days later following a single subcutaneous administration to 3 mg/kg zalospirone. […] The data are presented as mean±SEM, N=8.
as §1, with “The recording filter was set at 300 Hz.” left out

cone photoreceptors [2] = experiment: Anti-opsin immunofluorescence in retinal cross sections after blue light-induced injury; format: in vivo, rat; details: pretreatment with 3 mg/kg
Excerpt: (§3) FIG. 6A to 6E illustrate that zalospirone protects cone photoreceptors from blue light-induced injury in a model of dry AMD. […] The amplitude of the medium-wave (blue- and green-light responsive) cone driven ERG signals were reduced by >90% while the short-wave (ultra violet and blue-light responsive) cone signals were virtually eliminated (A, B).
A subset of 5 μm thick paraffin sections cut through the vertical meridian (prepared by Premier Labs) was not stained with H&E, but instead was subjected to anti-opsin immunofluorescent staining to detect both SW and M/L cones. Briefly, sections were baked at 60° C. for 1 hr, deparaffinized in xylene, rehydrated in a decreasing series of alcohols, rinsed in PBS 3×, and blocked in PBS containing 0.1% Tween 20, 0.1% Triton×100, and 5% normal donkey serum for 2 hr at RT. Slides were reacted 0/N at 4° C. with a combined mixture of anti-SW (SCBT; SC-14363) and -M/L (Millipore, Ab5405) opsin antibodies diluted to 1:200 and 1:500, respectively in a PBS buffer containing 0.1% Tween 20, 0.1% Triton×100, and 5% normal donkey serum. To control for specificity of staining, an additional subset of slides were reacted with a combined mixture of anti-SW opsin antibody preadsorbed with sc-14363/blocking peptide and normal rabbit IgG. […] The number of SW and M/L cones was manually counted for both slides from each study eye in dual channel fluorescent images. […]

cone photoreceptors [3] = experiment: Photopic ERG for S- and M-cone function after blue light-induced injury; format: in vivo, rat; details: pretreatment with 3 mg/kg; 7 days after 10,000 lux blue light
Excerpt: as §3, §1
The protection of cone photoreceptors by zalospirone from light induced injury is exemplified in FIG. 6 below.

retinal signaling = experiment: Full-field ERG (modified ISCEV protocols) in normal animals, scotopic and photopic; format: in vivo, rat
Procedure: FIG. 7 illustrates that zalospirone selectively enhances the scotopic b-wave. Visual function was assessed in vivo in the rat using standard ISCEV protocols. Measurements were made under scotopic (dark-adapted) conditions (“A”-“C”) or photopic conditions (“D”,“E”). In dark adapted animals, ERG recordings elicited by low intensity stimuli (1×10^−4 candela-sec m^2) treatment with 3 mg/kg zalospirone results in a 50% enhancement of the b-wave (“A”). […] Under photopic conditions signals predominately driven by the cone photoreceptors, the photopic b-wave (“D”) or ERG response to 20 Hz flicker (“E”) were unaffected by treatment with zalospirone (3 mg/kg).
FIG. 8 “A” to “C” illustrates that zalospirone selectively enhances the scotopic b-wave.
as §1
In addition to protecting retinal photoreceptors and preserving their function during exposure to an insult, the enhancement or normalization of retinal signaling after injury would be provide significant value in degenerative retinal diseases. The International Society for Clinical Electrophysiology of Vision (ISCEV) provides standards for ascertaining the effects of interventions on retinal signaling. […] Expanding on the observation that scotopic signaling was enhanced in normal animals, it was hypothesized that zalospirone could contribute to the normalization of retinal signaling following injury.

[4] = 7 days after 10,000 lux blue light
[5] = 3 mg/kg, dark adapted, 20 candela-sec m^2
[6] = 3 mg/kg, photopic conditions, normal animals

SMILES: Cn1c(=O)cnn(CCCCN2CCN(c3ncccn3)CC2)c1=O [eptapirone, 4-Methyl-2-[4-(4-pyrimidin-2-yl-piperazin-1-yl)-butyl]-2H-[1,2,4]triazine-3,5-dione]
5-HT1A receptor activity (5-HT1A receptor): very potent and highly selective 5-HT1A receptor full agonist
protection of retinal signaling (rod photoreceptors): 80%
protection of rod photoreceptors from blue light-induced injury (rod photoreceptors; [4]): protects rod photoreceptors from blue light-induced injury
retinal lesion (loss of photoreceptors) measured in the vertical meridian of the eye [1]: almost entirely prevents this lesion from forming
protection of structural integrity of the outer nuclear layer [1]: 100%
outer nuclear cell count and retinal structure (H&E stained retinas) [1]: maintains outer nuclear cell count but also normalizes retinal structure

enhancement of the scotopic b-wave (retinal signaling; 3 mg/kg, dark adapted, low intensity stimuli 1×10^−4 candela-sec m^2): 50%
ERG response to 20 Hz flicker (retinal signaling; [6]): unaffected
photopic b-wave (retinal signaling; [6]): unaffected
scotopic signaling, modified ISCEV full-field electroretinography (retinal signaling; rat): selectively enhanced scotopic signaling
SMILES: O=C1[C@@H]2C3C=CC([C@H]4CC[C@@H]34)[C@@H]2C(=O)N1CCCCN1CCN(c2ncccn2)CC1 [zalospirone, (3aα,4α,4aβ,6aβ,7α,7aα)-hexahydro-2-(4-(4-(2-pyrimidinyl)-1-piperazinyl)butyl)-4,7-etheno-1H-cyclobut(f)isoindole-1,3(2H)-dione]
scotopic b-wave amplitude after injury compared with baseline (scotopic b-wave): fully restored the b-wave to its baseline amplitude; also recorded: restored b-wave amplitudes to the baseline levels
cones by short wave and medium/long wave opsin immunofluorescent staining (cone photoreceptors [2]): virtually identical to that in naïve animals; also recorded: prevents the loss of cones
photopic b-wave amplitude (medium-wave and short-wave cone driven ERG signals) (cone photoreceptors [3]): significantly protected; also recorded: largely restored ERG signaling
rod-based signaling (scotopic b-wave) (retinal signaling; 3 mg/kg, dark adapted rats, low intensity stimuli ≦10^−3 candelas-sec/m^2): preferentially augments rod-based signaling
retinal oscillatory potentials (retinal signaling; [5]): neither the b-wave (“B”) nor the retinal oscillatory potentials (“C”) were affected
scotopic b-wave at greater intensity stimuli (retinal signaling; [5]): neither the b-wave (“B”) nor the retinal oscillatory potentials (“C”) were affected
5-HT1A receptor activity (5-HT1A receptor): selective 5-HT1A partial agonist
protection of retinal signaling (rod photoreceptors): 80%
protection of the ERG signal (rod photoreceptors; median animal dosed with 3 mg/kg, 7 days after 10,000 lux blue light, 20 candela-sec/m^2 white light stimulus): complete protection
protection of rod photoreceptors from blue light-induced injury (rod photoreceptors; [4]): protects rod photoreceptors from blue light-induced injury
retinal lesion (loss of photoreceptors) measured in the vertical meridian of the eye [1]: almost entirely prevents this lesion from forming
protection of structural integrity of the outer nuclear layer [1]: 100%
outer nuclear cell count and retinal structure (H&E stained retinas) [1]: maintains outer nuclear cell count but also normalizes retinal structure
